Starred links: 1 amine or outer side, 2 acyl side, 3 side chain; linkers in the order of their positions; H or OH if unused. Positions of bridges follow the written chain, without caps; N, C: chain ends. Non-standard residues stand in square brackets, D forms with d. Residues, ends and D or L forms follow the SMILES beside them. TATB = O=C(C[*:1])N1CN(C(=O)C[*:2])CN(C(=O)C[*:3])C1; Hyp = O=C(O)[C@@H]1C[C@@H](O)CN1; Tle = CC(C)(C)[C@H](N)C(=O)O
Target: Human TfR1 (Homo sapiens, UniProt P02786)
Assay: biochemical
Procedure: Recombinant human and cynomolgus TfR1 were received from Bicycle as Hiss-tagged TfR1 (a.a. 89-760) (ACRO Biosystems, CD1-H5243 and TFR-C524a).
For analysis of TfR1 peptide binding, a Biacore T200 or S200 instrument was used utilising a capture/coupling approach with a Cytiva NTA chip at 25° C. with 25 mM HEPES, 0.1M NaCl, 0.05% Tween 20 pH 7.4 as the running buffer. Immobilisation was carried out as follows. The chip was pre-equilibrated with an injection of 500 mM EDTA (pH 8), before activation with 5 mM NiSO4. The surface was then activated using standard amine-coupling chemistry. Briefly, the carboxymethyl dextran surface was activated with a 1:1 ratio of 0.4 M 1-ethyl-3-(3-dimethylaminopropyl) carbodiimide hydrochloride (EDC)/0.1 M N-hydroxy succinimide (NHS). The TfR1 protein (human or cynomolgus) was then captured onto the activated surface after dilution into running buffer to 200 nM and 250 nM respectively. Residual activated groups were blocked with a 7 min injection of 1 M ethanolamine (pH 8.5):HBS-N(1:1). Reference surfaces were activated and blocked as above with no TfR1 protein capture. Capture levels were in the range of 1,500-5,000 RU dependent upon the individual study Buffer was changed to 25 mM HEPES, 0.1M NaCl, 0.05% Tween 20 pH 7.4 1% DMSO.
A dilution series of test peptides was prepared in this buffer with a top peptide concentration of 5 μM and 6 further 2-fold dilutions. The SPR analysis was run at 25° C. at a flow rate of 30 μl/min with 160 seconds association and 700-800 seconds dissociation. Data were corrected for DMSO excluded volume effects. All data were double-referenced for blank injections and reference surface using standard processing procedures and data processing and kinetic fitting were performed using Scrubber software, version 2.0c (BioLogic Software). Data were fitted using simple 1:1 binding model allowing for mass transport effects where appropriate.

Human TfR1, sequence (P02786 89-760): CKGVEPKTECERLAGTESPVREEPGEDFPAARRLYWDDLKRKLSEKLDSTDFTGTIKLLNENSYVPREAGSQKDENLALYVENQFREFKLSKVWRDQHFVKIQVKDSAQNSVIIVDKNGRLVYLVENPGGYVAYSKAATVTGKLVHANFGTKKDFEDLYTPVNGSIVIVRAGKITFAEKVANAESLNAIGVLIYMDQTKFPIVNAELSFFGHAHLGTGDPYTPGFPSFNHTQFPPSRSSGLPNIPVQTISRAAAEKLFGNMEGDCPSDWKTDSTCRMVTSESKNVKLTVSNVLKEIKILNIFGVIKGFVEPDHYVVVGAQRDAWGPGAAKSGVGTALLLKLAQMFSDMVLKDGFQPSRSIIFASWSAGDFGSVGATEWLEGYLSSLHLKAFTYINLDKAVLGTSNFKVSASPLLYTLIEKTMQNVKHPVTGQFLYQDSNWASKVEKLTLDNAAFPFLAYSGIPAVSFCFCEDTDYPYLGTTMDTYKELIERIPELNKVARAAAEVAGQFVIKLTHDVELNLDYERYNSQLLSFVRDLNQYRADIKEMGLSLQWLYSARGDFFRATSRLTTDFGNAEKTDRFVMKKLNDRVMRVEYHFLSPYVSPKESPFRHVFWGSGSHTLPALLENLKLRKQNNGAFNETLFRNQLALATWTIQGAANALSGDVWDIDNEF

| SMILES | Kd [nM] |
| --- | --- |
| CC(=O)N[C@H]1CSCC(=O)N2CN3CN(C2)C(=O)CSC[C@@H](C(=O)N[C@@H](CCC(=O)O)C(=O)N2CCC[C@H]2C(=O)N[C@@H](Cc2c[nH]c4ccccc24)C(N)=O)NC(=O)[C@H](Cc2ccc(O)cc2)NC(=O)[C@H](CO)NC(=O)[C@H](C(C)(C)C)NC(=O)[C@H](CSCC3=O)NC(=O)CNC(=O)[C@H](CC(C)C)NC(=O)[C@H](Cc2ccc(O)cc2)NC(=O)[C@H](C)NC(=O)[C@H](CC(=O)O)NC(=O)[C@@H]2C[C@@H](O)CN2C(=O)[C@@H]2C[C@@H](O)CN2C1=O [BCY23180, C[HyP][HyP]DAYLGC[tBuGly]SYCEPW] | 50 |
| CC(=O)N[C@H]1CSCC(=O)N2CN3CN(C2)C(=O)CSC[C@@H](C(=O)N[C@@H](CCC(=O)O)C(=O)N2CCC[C@H]2C(=O)N[C@@H](Cc2ccc(O)cc2)C(N)=O)NC(=O)[C@H](Cc2ccc(O)cc2)NC(=O)[C@H](CO)NC(=O)[C@H](C(C)(C)C)NC(=O)[C@H](CSCC3=O)NC(=O)CNC(=O)[C@H](CC(C)C)NC(=O)[C@H](Cc2ccc(O)cc2)NC(=O)[C@H](C)NC(=O)[C@H](CC(=O)O)NC(=O)[C@@H]2C[C@@H](O)CN2C(=O)[C@@H]2CCCN2C1=O [BCY23207, CP[HyP]DAYLGC[tBuGly]SYCEPY] | 7.7 |
| CC(=O)N[C@H]1CSCC(=O)N2CN3CN(C2)C(=O)CSC[C@@H](C(=O)N[C@@H](CCC(=O)O)C(=O)N2CCC[C@H]2C(=O)N[C@@H](CCc2ccc(O)cc2)C(N)=O)NC(=O)[C@H](Cc2ccc(O)cc2)NC(=O)[C@H](CO)NC(=O)[C@H](C(C)(C)C)NC(=O)[C@H](CSCC3=O)NC(=O)CNC(=O)[C@H](CC(C)C)NC(=O)[C@H](Cc2ccc(O)cc2)NC(=O)[C@H](C)NC(=O)[C@H](CC(=O)O)NC(=O)[C@@H]2C[C@@H](O)CN2C(=O)[C@@H]2CCCN2C1=O [BCY23211, CP[HyP]DAYLGC[tBuGly]SYCEP[hTyr]] | 7.7 |
| CC(=O)N[C@H]1CSCC(=O)N2CN3CN(C2)C(=O)CSC[C@@H](C(=O)N[C@@H](CCC(=O)O)C(=O)N2CCC[C@H]2C(=O)N[C@@H](Cc2c[nH]c4ccccc24)C(N)=O)NC(=O)[C@H](Cc2ccc(O)cc2)NC(=O)[C@H](CO)NC(=O)[C@H](C(C)(C)C)NC(=O)[C@H](CSCC3=O)NC(=O)CNC(=O)[C@H](CCC(N)=O)NC(=O)[C@H](Cc2ccc(O)cc2)NC(=O)[C@H](C)NC(=O)[C@H](CC(=O)O)NC(=O)[C@@H]2C[C@@H](O)CN2C(=O)[C@@H]2CCCN2C1=O [BCY23223, CP[HyP]DAYQGC[tBuGly]SYCEPW] (Ac-CP[Hyp]DAYQGC[Tle]SYCEPW-NH2; linker 1-9-13 via TATB) | 50 |

Reference: patent US20250276073A1, “BICYCLIC PEPTIDE LIGANDS SPECIFIC FOR TRANSFERRIN RECEPTOR 1 (TfR1)” (BicycleTx Limited, priority 2022, published 2025)
